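Step 1: Grow cells in 96-well plates. Step 2: Expose to compound for 48 hours at 5 concentrations. Step 3: Interpolate endpoints linearly; if unreached, use highest concentration. The concentration for 50% growth inhibition is given as GI50. The concentration for full growth arrest is given as TGI.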
Key:
Test in all cases: DTP human tumour cell line panel, 48 h
HOP-62 NSCLC = tested on: HOP-62 NSCLC
IGROV1 ovarian = tested on: IGROV1 ovarian
SF-295 CNS = tested on: SF-295 CNS
NCI-H23 lung = tested on: NCI-H23 lung
SNB-75 CNS = tested on: SNB-75 CNS
ACHN renal = tested on: ACHN renal
MALME-3M melanoma = tested on: MALME-3M melanoma
T-47D breast = tested on: T-47D breast
COLO 205 colon = tested on: COLO 205 colon
A549 NSCLC = tested on: A549 NSCLC
HL-60(TB) leukemia = tested on: HL-60(TB) leukemia
NCI-H522 lung = tested on: NCI-H522 lung
OVCAR-3 ovarian = tested on: OVCAR-3 ovarian
SW-620 colon = tested on: SW-620 colon
DU-145 prostate = tested on: DU-145 prostate
SF-539 CNS = tested on: SF-539 CNS
HS 578T breast = tested on: HS 578T breast
SN12C renal = tested on: SN12C renal
HT29 colon = tested on: HT29 colon
EKVX NSCLC = tested on: EKVX NSCLC
KM12 colon = tested on: KM12 colon
HCT-15 colon = tested on: HCT-15 colon
HCT-116 colon = tested on: HCT-116 colon
OVCAR-8 ovarian = tested on: OVCAR-8 ovarian
SNB-19 CNS = tested on: SNB-19 CNS
NCI-H226 lung = tested on: NCI-H226 lung
CAKI-1 renal = tested on: CAKI-1 renal
MDA-MB-231 breast = tested on: MDA-MB-231 breast
SK-MEL-2 melanoma = tested on: SK-MEL-2 melanoma
MOLT-4 leukemia = tested on: MOLT-4 leukemia
K-562 leukemia = tested on: K-562 leukemia
SK-MEL-28 melanoma = tested on: SK-MEL-28 melanoma
U251 CNS = tested on: U251 CNS
SF-268 CNS = tested on: SF-268 CNS
MDA-MB-468 breast = tested on: MDA-MB-468 breast
SK-OV-3 ovarian = tested on: SK-OV-3 ovarian
HOP-92 NSCLC = tested on: HOP-92 NSCLC
BT-549 breast = tested on: BT-549 breast
CCRF-CEM leukemia = tested on: CCRF-CEM leukemia
TK-10 renal = tested on: TK-10 renal
LOX IMVI melanoma = tested on: LOX IMVI melanoma
HCC-2998 colon = tested on: HCC-2998 colon
UACC-257 melanoma = tested on: UACC-257 melanoma
PC-3 prostate = tested on: PC-3 prostate
RPMI-8226 leukemia = tested on: RPMI-8226 leukemia
SR leukemia = tested on: SR leukemia
786-0 renal = tested on: 786-0 renal
UO-31 renal = tested on: UO-31 renal
SK-MEL-5 melanoma = tested on: SK-MEL-5 melanoma
OVCAR-4 ovarian = tested on: OVCAR-4 ovarian
RXF 393 renal = tested on: RXF 393 renal
MCF7 breast = tested on: MCF7 breast
M14 melanoma = tested on: M14 melanoma
A498 renal = tested on: A498 renal
UACC-62 melanoma = tested on: UACC-62 melanoma
NCI-H460 lung = tested on: NCI-H460 lung
MDA-MB-435 = tested on: MDA-MB-435
OVCAR-5 ovarian = tested on: OVCAR-5 ovarian

## O=c1cc(-c2ccccc2)oc2cc(OCCCNCc3ccccc3)cc(O)c12
HOP-62 NSCLC
  GI50: 11.5 µM
  TGI: 44.4 µM
IGROV1 ovarian
  GI50: 3.37 µM
  TGI: 15.7 µM
SF-295 CNS
  GI50: 4.72 µM
  TGI: 18 µM
NCI-H23 lung
  GI50: 11.9 µM
  TGI: 26.3 µM
SNB-75 CNS
  GI50: 2.4 µM
  TGI: 16.5 µM
ACHN renal
  GI50: 3.42 µM
  TGI: 14.2 µM
MALME-3M melanoma
  GI50: 1.53 µM
  TGI: 3.2 µM
T-47D breast
  GI50: 2.81 µM
  TGI: 8.68 µM
COLO 205 colon
  GI50: 1.98 µM
  TGI: 3.82 µM
A549 NSCLC
  GI50: 4.33 µM
  TGI: 46.4 µM
HL-60(TB) leukemia
  GI50: 1.89 µM
  TGI: 5.03 µM
NCI-H522 lung
  GI50: 6.21 µM
  TGI: 26.2 µM
OVCAR-3 ovarian
  GI50: 10 µM
  TGI: 23.7 µM
SW-620 colon
  GI50: 5.98 µM
  TGI: 21.1 µM
DU-145 prostate
  GI50: 7.59 µM
  TGI: 20.4 µM
SF-539 CNS
  GI50: 5.64 µM
  TGI: 18.7 µM
HS 578T breast
  GI50: 4.08 µM
  TGI: 33.7 µM
SN12C renal
  GI50: 4.19 µM
  TGI: 24.6 µM
HT29 colon
  GI50: 3.15 µM
  TGI: 27.3 µM
EKVX NSCLC
  GI50: 13.8 µM
  TGI: 36.4 µM
KM12 colon
  GI50: 3.77 µM
  TGI: 14.5 µM
HCT-15 colon
  GI50: 3.54 µM
  TGI: 13.1 µM
HCT-116 colon
  GI50: 3.72 µM
  TGI: 27.7 µM
OVCAR-8 ovarian
  GI50: 10.2 µM
  TGI: > 100 µM
SNB-19 CNS
  GI50: 10.4 µM
  TGI: 31.2 µM
NCI-H226 lung
  GI50: 11.1 µM
  TGI: 41.9 µM
CAKI-1 renal
  GI50: 2.41 µM
  TGI: 11 µM
MDA-MB-231 breast
  GI50: 2.89 µM
  TGI: 12.9 µM
SK-MEL-2 melanoma
  GI50: 6.43 µM
  TGI: 19.7 µM
MOLT-4 leukemia
  GI50: 3.53 µM
  TGI: > 100 µM
K-562 leukemia
  GI50: 3.16 µM
  TGI: > 100 µM
SK-MEL-28 melanoma
  GI50: 2.31 µM
  TGI: 5.39 µM
U251 CNS
  GI50: 3.69 µM
  TGI: 19.1 µM
SF-268 CNS
  GI50: 4.81 µM
  TGI: 30.3 µM
MDA-MB-468 breast
  GI50: 2.08 µM
  TGI: 5.21 µM
SK-OV-3 ovarian
  GI50: 10.2 µM
  TGI: 22.6 µM
HOP-92 NSCLC
  GI50: 1.56 µM
  TGI: 17.1 µM
BT-549 breast
  GI50: 8.5 µM
  TGI: 22.2 µM
CCRF-CEM leukemia
  GI50: 5.29 µM
  TGI: > 100 µM
TK-10 renal
  GI50: 14.8 µM
  TGI: 28.8 µM
LOX IMVI melanoma
  GI50: 1.84 µM
  TGI: 3.92 µM
HCC-2998 colon
  GI50: 1.91 µM
  TGI: 3.64 µM
UACC-257 melanoma
  GI50: 2.13 µM
  TGI: 5.1 µM
PC-3 prostate
  GI50: 5.05 µM
  TGI: 32.4 µM
RPMI-8226 leukemia
  GI50: 3.46 µM
  TGI: > 100 µM
SR leukemia
  GI50: 2.91 µM
  TGI: > 100 µM
786-0 renal
  GI50: 2.98 µM
  TGI: 15.5 µM
UO-31 renal
  GI50: 1.15 µM
  TGI: 8.66 µM
SK-MEL-5 melanoma
  GI50: 5.04 µM
  TGI: 16.9 µM
OVCAR-4 ovarian
  GI50: 2.78 µM
  TGI: 8.84 µM
RXF 393 renal
  GI50: 1.97 µM
  TGI: 8.11 µM
MCF7 breast
  GI50: 2.61 µM
  TGI: 10.3 µM
M14 melanoma
  GI50: 2.64 µM
  TGI: 6.88 µM
A498 renal
  GI50: 3.94 µM
  TGI: 16.9 µM
UACC-62 melanoma
  GI50: 1.77 µM
  TGI: 3.49 µM
NCI-H460 lung
  GI50: 4.15 µM
  TGI: 20.8 µM
MDA-MB-435
  GI50: 10.1 µM
  TGI: 21.7 µM
OVCAR-5 ovarian
  GI50: 10 µM
  TGI: 22.9 µM

## Cc1ccc2nc(COc3ccc(C(=O)NNC(=O)Nc4ccc(Cl)c(C(F)(F)F)c4)cc3)[nH]c2c1
HOP-62 NSCLC
  GI50: 5.68 µM
  TGI: 21.6 µM
IGROV1 ovarian
  GI50: 9.96 µM
  TGI: 27.2 µM
SF-295 CNS
  GI50: 12.3 µM
  TGI: 25.9 µM
NCI-H23 lung
  GI50: 10.8 µM
  TGI: 29.7 µM
ACHN renal
  GI50: 27.4 µM
  TGI: > 100 µM
MALME-3M melanoma
  GI50: 2.06 µM
  TGI: 5.06 µM
COLO 205 colon
  GI50: 21.7 µM
  TGI: 71.8 µM
A549 NSCLC
  GI50: 7.96 µM
  TGI: 71.1 µM
HL-60(TB) leukemia
  GI50: > 100 µM
  TGI: > 100 µM
NCI-H522 lung
  GI50: 13.8 µM
  TGI: 39.7 µM
OVCAR-3 ovarian
  GI50: 24.2 µM
  TGI: > 100 µM
SW-620 colon
  GI50: 10.7 µM
  TGI: 36.9 µM
DU-145 prostate
  GI50: 30.4 µM
  TGI: > 100 µM
SF-539 CNS
  GI50: 4 µM
  TGI: 20.1 µM
HS 578T breast
  GI50: 2.98 µM
  TGI: 53.9 µM
SN12C renal
  GI50: 10.3 µM
  TGI: 50 µM
HT29 colon
  GI50: 19.5 µM
  TGI: 84.9 µM
EKVX NSCLC
  GI50: 41.8 µM
  TGI: > 100 µM
KM12 colon
  GI50: 29.5 µM
  TGI: > 100 µM
HCT-15 colon
  GI50: 49.1 µM
  TGI: > 100 µM
HCT-116 colon
  GI50: 45.1 µM
  TGI: > 100 µM
OVCAR-8 ovarian
  GI50: 5.54 µM
  TGI: 47.9 µM
SNB-19 CNS
  GI50: 5.59 µM
  TGI: 19.9 µM
NCI-H226 lung
  GI50: 12.2 µM
  TGI: 39.7 µM
CAKI-1 renal
  GI50: 21 µM
  TGI: 64.2 µM
MDA-MB-231 breast
  GI50: 6.31 µM
  TGI: 26 µM
SK-MEL-2 melanoma
  GI50: 15.9 µM
  TGI: 44.7 µM
MOLT-4 leukemia
  GI50: 21.6 µM
  TGI: > 100 µM
K-562 leukemia
  GI50: 6.1 µM
  TGI: > 100 µM
SK-MEL-28 melanoma
  GI50: 2.94 µM
  TGI: 9.25 µM
U251 CNS
  GI50: 4.13 µM
  TGI: 17.9 µM
SF-268 CNS
  GI50: 6.57 µM
  TGI: > 100 µM
MDA-MB-468 breast
  GI50: 2.77 µM
  TGI: 7.77 µM
SK-OV-3 ovarian
  GI50: 21.2 µM
  TGI: 54.1 µM
HOP-92 NSCLC
  GI50: 5.38 µM
  TGI: 24 µM
BT-549 breast
  GI50: 13 µM
  TGI: 88.1 µM
CCRF-CEM leukemia
  GI50: 51.2 µM
  TGI: > 100 µM
TK-10 renal
  GI50: 49.4 µM
  TGI: > 100 µM
LOX IMVI melanoma
  GI50: 4.04 µM
  TGI: 18.7 µM
HCC-2998 colon
  GI50: 28.8 µM
  TGI: > 100 µM
UACC-257 melanoma
  GI50: 5.11 µM
  TGI: 58 µM
PC-3 prostate
  GI50: 6.71 µM
  TGI: 36.2 µM
RPMI-8226 leukemia
  GI50: 49.8 µM
  TGI: > 100 µM
SR leukemia
  GI50: 8.46 µM
  TGI: > 100 µM
786-0 renal
  GI50: 14.6 µM
  TGI: 41.6 µM
UO-31 renal
  GI50: > 100 µM
  TGI: > 100 µM
SK-MEL-5 melanoma
  GI50: 11.8 µM
  TGI: 28.4 µM
OVCAR-4 ovarian
  GI50: 18 µM
  TGI: 66.8 µM
RXF 393 renal
  GI50: 6.32 µM
  TGI: 22 µM
MCF7 breast
  GI50: 3.61 µM
  TGI: 17.2 µM
M14 melanoma
  GI50: 8.45 µM
  TGI: > 100 µM
A498 renal
  GI50: 75.9 µM
  TGI: > 100 µM
UACC-62 melanoma
  GI50: 5.31 µM
  TGI: 19.8 µM
NCI-H460 lung
  GI50: 7.24 µM
  TGI: 23.4 µM
MDA-MB-435
  GI50: 5.08 µM
  TGI: 36.5 µM
OVCAR-5 ovarian
  GI50: 26.6 µM
  TGI: > 100 µM

— PubChem BioAssay (NCI)
